Test results published in PubChem BioAssay AID1918954 (Molecular Pharmacology Branch, DTP, NCI, 2023).
“And” between values parts separate entries of the source, which are not always exact repeats. Equal values may be shown once.

System: MDA-MB-468 complex spheroids with HUVEC/MSC, viability
Test: Anticancer human tumor MDA-MB-468 cell line growth inhibition;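 further: spheroids exposed to agents for seven days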;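 on viability, T/C: 100% = DMSO vehicle control viability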
Conditions: for viability, T/C: stronger effect = lower value
Outline: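 Multicellular complex spheroids of tumor cells with human endothelial cells (HUVEC) and mesenchymal stem cells; the LSD1 inhibitor iadademstat was combined with standard-of-care or investigational agents. Top concentration at or near clinical Cmax, half-log dilutions; final DMSO ≤0.25%.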

[1] = curve of first compound, second compound 0.1 µM
[2] = curve of first compound, second compound 0.316 µM
[3] = curve of first compound, second compound 1 µM
[4] = curve of first compound, second compound 3.16 µM
[5] = curve of first compound, second compound 10 µM
[6] = second compound 0.1 µM, first compound 0.00316 µM
[7] = second compound 0.1 µM, first compound 0.01 µM
[8] = second compound 0.1 µM, first compound 0.0316 µM
[9] = second compound 0.1 µM, first compound 0.1 µM
[10] = second compound 0.1 µM, first compound 0.316 µM
[11] = second compound 0.1 µM, first compound 1 µM
[12] = second compound 0.316 µM, first compound 0.00316 µM
[13] = second compound 0.316 µM, first compound 0.01 µM
[14] = second compound 0.316 µM, first compound 0.0316 µM
[15] = second compound 0.316 µM, first compound 0.1 µM
[16] = second compound 0.316 µM, first compound 0.316 µM
[17] = second compound 0.316 µM, first compound 1 µM
[18] = second compound 1 µM, first compound 0.00316 µM
[19] = second compound 1 µM, first compound 0.01 µM
[20] = second compound 1 µM, first compound 0.0316 µM
[21] = second compound 1 µM, first compound 0.1 µM
[22] = second compound 1 µM, first compound 0.316 µM
[23] = second compound 1 µM, first compound 1 µM
[24] = second compound 3.16 µM, first compound 0.00316 µM
[25] = second compound 3.16 µM, first compound 0.01 µM
[26] = second compound 3.16 µM, first compound 0.0316 µM
[27] = second compound 3.16 µM, first compound 0.1 µM
[28] = second compound 3.16 µM, first compound 0.316 µM
[29] = second compound 3.16 µM, first compound 1 µM
[30] = second compound 10 µM, first compound 0.00316 µM
[31] = second compound 10 µM, first compound 0.01 µM
[32] = second compound 10 µM, first compound 0.0316 µM
[33] = second compound 10 µM, first compound 0.1 µM
[34] = second compound 10 µM, first compound 0.316 µM
[35] = second compound 10 µM, first compound 1 µM

SMILES | IC50 [1] | IC50 [2] | IC50 [3] | IC50 [4] | IC50 [5] | viability, T/C [8] | viability, T/C [9] | viability, T/C [10] | viability, T/C [11] | viability, T/C [14] | viability, T/C [15] | viability, T/C [16] | viability, T/C [17] | viability, T/C [20] | viability, T/C [21] | viability, T/C [22] | viability, T/C [23] | viability, T/C [26] | viability, T/C [27] | viability, T/C [28] | other results
Nc1ncn(C2CC(O)C(CO)O2)c(=O)n1 (configuration not stated) + NC1CC1c1ccc(-c2cccc(O)c2)cc1 | 16.4 nM | 19.3 nM | 17.9 nM | 15 nM | 9.07 nM | 27.2% | 12.3% | 9.59% | 7.38% | 31.2% | 11.8% | 8.68% | 6.69% | 27.8% | 12.6% | 7.79% | 7.05% | 24.4% | 11.6% | 8.23% | viability, T/C [6]: 87.3%; viability, T/C [7]: 66.9%; viability, T/C [12]: 89.9%; viability, T/C [13]: 74.8%; viability, T/C [18]: 92.4%; viability, T/C [19]: 72.2%; viability, T/C [24]: 90.1%; viability, T/C [25]: 64%; viability, T/C [29]: 6.83%; viability, T/C [30]: 69%; viability, T/C [31]: 48.1%; viability, T/C [32]: 25.1%; viability, T/C [33]: 11.4%; viability, T/C [34]: 7.65%; viability, T/C [35]: 6.35%
CC1(C)CCC(CN2CCN(c3ccc(C(=O)NS(=O)(=O)c4ccc(NCC5CCOCC5)c([N+](=O)[O-])c4)c(Oc4cnc5[nH]ccc5c4)c3)CC2)=C(c2ccc(Cl)cc2)C1 + NC1CC1c1ccc(-c2cccc(O)c2)cc1 | 1820 nM | 1700 nM | 1830 nM | 1550 nM | 509 nM | 106% | 90.4% | 96.9% | 72.7% | 90.3% | 108% | 94.4% | 64.7% | 93.7% | 101% | 88.6% | 75.8% | 91.2% | 83.1% | 92.1% | viability, T/C (second compound 0.1 µM, first compound 3.16 µM): 29%; viability, T/C (second compound 0.1 µM, first compound 10 µM): 2.15%; viability, T/C (second compound 0.316 µM, first compound 3.16 µM): 30.9%; viability, T/C (second compound 0.316 µM, first compound 10 µM): 1.99%; viability, T/C (second compound 1 µM, first compound 3.16 µM): 27.4%; viability, T/C (second compound 1 µM, first compound 10 µM): 2.31%; viability, T/C [29]: 64%; viability, T/C (second compound 3.16 µM, first compound 3.16 µM): 24.5%; viability, T/C (second compound 3.16 µM, first compound 10 µM): 1.95%; viability, T/C [32]: 78.5%; viability, T/C [33]: 67.7%; viability, T/C [34]: 59.9%; viability, T/C [35]: 38.5%; viability, T/C (second compound 10 µM, first compound 3.16 µM): 16.8%; viability, T/C (second compound 10 µM, first compound 10 µM): 1.82%
CC1COCCN1c1cc(C2(S(C)(=N)=O)CC2)nc(-c2ccnc3[nH]ccc23)n1 (configuration not stated) |  |  |  |  |  |  |  |  |  |  |  |  |  |  |  |  |  |  |  |  | viability, T/C (compound 0.0316 µM): 101% and 78.9%; viability, T/C (compound 0.1 µM): 67.4% and 88.1%; viability, T/C (compound 0.316 µM): 50.6% and 66.4%; viability, T/C (compound 1 µM): 30.4% and 46%; viability, T/C (compound 3.16 µM): 21.9% and 24.2%; viability, T/C (compound 10 µM): 11.6% and 9.82%; IC50 (curve of compound): 282 nM and 835 nM
CC1COCCN1c1cc(-c2ccnn2C)c2ccnc(-c3ccn[nH]3)c2n1 (configuration not stated) + NC1CC1c1ccc(-c2cccc(O)c2)cc1 | < 3.16 nM | < 3.16 nM | < 3.16 nM | < 3.16 nM | < 3.16 nM | 16.7% | 7.91% | 5.23% | 2.24% | 17% | 7.28% | 4.97% | 2.27% | 15.5% | 7.91% | 5.09% | 2.01% | 12.3% | 7.5% | 5.19% | viability, T/C [6]: 40%; viability, T/C [7]: 30.1%; viability, T/C [12]: 37.9%; viability, T/C [13]: 27.4%; viability, T/C [18]: 29.2%; viability, T/C [19]: 28%; viability, T/C [24]: 27.4%; viability, T/C [25]: 22.4%; viability, T/C [29]: 2.2%; viability, T/C [30]: 20.3%; viability, T/C [31]: 17.1%; viability, T/C [32]: 10.4%; viability, T/C [33]: 6.9%; viability, T/C [34]: 5.95%; viability, T/C [35]: 2.01%
